Several values for one entry are separate records, joined by “and”; a condition that tells them apart may be missing. Equal entries are not always repeated. Toxic doses and inconclusive results are not listed. Rule for the calls: active = survival T/C of 150% or more; inactive = T/C below 125% in these data.
Test system: P388 leukemia ip, CD2F1 mice, survival T/C
Assay: NCI In Vivo Anticancer Drug Screen. Data for tumor model P388 Leukemia (intraperitoneal) in CD2F1 (CDF1) mice
Conditions: endpoint: median survival time, higher = longer survival
How it was run: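 Mice carrying the transplanted tumor received test compound or vehicle. Survival was recorded in each group, and the value is the treated-group measurement divided by that of the vehicle-treated control group.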

[1] = dose: 50.0 mg/kg/injection, schedule: Q01DX009 (ip), vehicle: saline with Tween-80
[2] = dose: 100.0 mg/kg/injection, schedule: Q01DX009 (ip), vehicle: saline with Tween-80
[3] = dose: 200.0 mg/kg/injection, schedule: Q01DX009 (ip), vehicle: saline with Tween-80
[4] = dose: 50.0 mg/kg/injection, schedule: Q01DX005 (ip), vehicle: saline with Tween-80
[5] = dose: 100.0 mg/kg/injection, schedule: Q01DX005 (ip), vehicle: saline with Tween-80
[6] = dose: 200.0 mg/kg/injection, schedule: Q01DX005 (ip), vehicle: saline with Tween-80
[7] = dose: 50.0 mg/kg/injection, schedule: Q01DX005 (ip), vehicle: Klucel (hydroxypropylcellulose) (HPC)
[8] = dose: 100.0 mg/kg/injection, schedule: Q01DX005 (ip), vehicle: Klucel (hydroxypropylcellulose) (HPC)
[9] = dose: 200.0 mg/kg/injection, schedule: Q01DX005 (ip), vehicle: Klucel (hydroxypropylcellulose) (HPC)
[10] = dose: 50.0 mg/kg/injection, schedule: Q01DX009 (ip), vehicle: Klucel (hydroxypropylcellulose) (HPC)
[11] = dose: 100.0 mg/kg/injection, schedule: Q01DX009 (ip), vehicle: Klucel (hydroxypropylcellulose) (HPC)
[12] = dose: 200.0 mg/kg/injection, schedule: Q01DX009 (ip), vehicle: Klucel (hydroxypropylcellulose) (HPC)
[13] = dose: 100.0 mg/kg/injection, schedule: Q04DX003 (ip), vehicle: Klucel (hydroxypropylcellulose) (HPC)
[14] = dose: 200.0 mg/kg/injection, schedule: Q04DX003 (ip), vehicle: Klucel (hydroxypropylcellulose) (HPC)
[15] = dose: 400.0 mg/kg/injection, schedule: Q04DX003 (ip), vehicle: Klucel (hydroxypropylcellulose) (HPC)

Measured: T/C

OC1(C#Cc2ccccc2)c2ccccc2C(O)(C#Cc2ccccc2)c2cnccc21 (configuration not stated)
inactive: [1] 95 % of control | [2] 93 % of control | [3] 87 % of control

Cc1ccc2c(c1)Nc1c(ccc3ccccc13)S2
inactive: [4] 105 % of control | [5] 105 % of control | [6] 103 % of control

C=CCN1C(SC)=NC(=O)C1(c1ccccc1)c1ccccc1
inactive: [7] 100 % of control | [8] 104 % of control | [9] 102 % of control

CC(C)NC1CC2CCCCC2CC1c1ccccc1 (configuration not stated)
inactive: dose: 100.0 mg/kg/injection, schedule: Q01DX001 (ip), vehicle: Klucel (hydroxypropylcellulose) (HPC) 93 % of control | dose: 200.0 mg/kg/injection, schedule: Q01DX001 (ip), vehicle: Klucel (hydroxypropylcellulose) (HPC) 93 % of control | dose: 400.0 mg/kg/injection, schedule: Q01DX001 (ip), vehicle: Klucel (hydroxypropylcellulose) (HPC) 88 % of control

COC(=S)SCN(CSC(=S)OC)c1ccccc1Cl
inactive: dose: 100.0 mg/kg/injection, schedule: Q04DX003 (ip), vehicle: saline 100 % of control | dose: 200.0 mg/kg/injection, schedule: Q04DX003 (ip), vehicle: saline 100 % of control | dose: 400.0 mg/kg/injection, schedule: Q04DX003 (ip), vehicle: saline 118 % of control

CCCCN(C(=O)C(C)C)c1nc(C)co1
inactive: [1] 112 % of control | [2] 118 % of control | [3] 96 % of control

CCCCCCCCCCCCCCCCCCN(CCCCCCCCCCCCCCCCCC)c1ccc(/C=C/c2ccnc3ccccc23)cc1
inactive: dose: 25.0 mg/kg/injection, schedule: Q01DX009 (ip), vehicle: Klucel (hydroxypropylcellulose) (HPC) 104 % of control | [10] 95 % of control | [11] 95 % of control | [12] 104 % of control

COC(=O)/C=C\C1(CCC(=O)OC)N=C(c2ccccc2)OC1=O (configuration not stated)
inactive: [4] 101 % of control | [5] 92 % of control | [6] 96 % of control

[Br][Pd][Br].[NH-]C1CCCC2CCC[N-]C12 (configuration not stated)
inactive: dose: 12.5 mg/kg/injection, schedule: Q04DX002 (ip), vehicle: saline with Tween-80 93 % of control | dose: 25.0 mg/kg/injection, schedule: Q04DX002 (ip), vehicle: saline with Tween-80 93 % of control | dose: 50.0 mg/kg/injection, schedule: Q04DX002 (ip), vehicle: saline with Tween-80 98 % of control

COc1ccc2c(C)cc(N/N=C/c3ccccn3)nc2c1
inactive: dose: 25.0 mg/kg/injection, schedule: Q01DX005 (ip), vehicle: Klucel (hydroxypropylcellulose) (HPC) 102 % of control and 112 % of control | [7] 104 % of control and 118 % of control and 93 % of control | [8] 104 % of control and 112 % of control

CCOC(=O)NNC(=O)Nc1ccccc1F
inactive: dose: 60.0 mg/kg/injection, schedule: Q01DX005 (ip), vehicle: saline with Tween-80 108 % of control | dose: 120.0 mg/kg/injection, schedule: Q01DX005 (ip), vehicle: saline with Tween-80 96 % of control | dose: 240.0 mg/kg/injection, schedule: Q01DX005 (ip), vehicle: saline with Tween-80 99 % of control

CCOC(=O)NC(Cc1cc(OC)c(OC)cc1Br)c1ccc(OC)c(OC)c1OC (configuration not stated)
inactive: dose: 100.0 mg/kg/injection, schedule: Q01DX001 (ip), vehicle: saline with Tween-80 91 % of control | dose: 200.0 mg/kg/injection, schedule: Q01DX001 (ip), vehicle: saline with Tween-80 94 % of control | dose: 400.0 mg/kg/injection, schedule: Q01DX001 (ip), vehicle: saline with Tween-80 91 % of control

COc1ccc2c(c1)-c1nn(CCO)c(-c3ccccn3)c1CC2
inactive: [10] 109 % of control | [11] 106 % of control | [12] 106 % of control

CCOC(=O)N1C=CC2Oc3c(Cl)c(Cl)c(Cl)c(Cl)c3OC2C=N1 (configuration not stated)
inactive: dose: 60.0 mg/kg/injection, schedule: Q01DX005 (ip), vehicle: Klucel (hydroxypropylcellulose) (HPC) 102 % of control | dose: 120.0 mg/kg/injection, schedule: Q01DX005 (ip), vehicle: Klucel (hydroxypropylcellulose) (HPC) 101 % of control | dose: 240.0 mg/kg/injection, schedule: Q01DX005 (ip), vehicle: Klucel (hydroxypropylcellulose) (HPC) 101 % of control

COc1cccc(N2CCN(CC(O)COc3cc4c(c5c3CCCC5)CCCC4)CC2)c1 (configuration not stated)
inactive: [13] 93 % of control | [14] 92 % of control | [15] 91 % of control

NC(=O)NC(CC(=O)O)C(=O)O (configuration not stated)
inactive: [1] 92 % of control | [2] 101 % of control | [3] 106 % of control

N#Cc1ccc(N2C(=O)c3ccc(C(O)(C(F)(F)F)C(F)(F)F)cc3C2=O)cc1C#N
inactive: [10] 103 % of control | [11] 103 % of control | [12] 99 % of control

N#CCC(=O)N/N=C(/CC1(O)C(=O)Nc2c(Cl)cc(Cl)cc21)c1ccccc1 (configuration not stated)
inactive: [4] 102 % of control | [5] 100 % of control | [6] 104 % of control

COc1ccc2c(c1)OC(C)(C)C(c1ccccc1)=C2c1ccc(OCCBr)cc1
inactive: [7] 101 % of control | [8] 98 % of control | [9] 100 % of control

O=c1[nH]c2ccc(Cl)cc2[nH]c1=O
inactive: [4] 99 % of control | [5] 100 % of control | [6] 94 % of control

C[N+](C)(Cc1cccc(Cl)c1)c1nnn[n-]1
inactive: [13] 98 % of control | [14] 101 % of control | [15] 107 % of control

CCOC(=O)COc1cc2c(cc1C(C)c1ccc(OC)c(OC)c1)OCO2 (configuration not stated)
inactive: dose: 50.0 mg/kg/injection, schedule: Q01DX005 (ip), vehicle: distilled water + Tween-80 90 % of control | dose: 100.0 mg/kg/injection, schedule: Q01DX005 (ip), vehicle: distilled water + Tween-80 91 % of control | dose: 200.0 mg/kg/injection, schedule: Q01DX005 (ip), vehicle: distilled water + Tween-80 86 % of control

CCN(CC)Cc1ccc2ccccc2c1O
inactive: [1] 103 % of control | [2] 89 % of control | [3] 92 % of control

CCCCCCCCSCc1ccc(Nc2ccc(Nc3ccc(CSCCCCCCCC)cc3)cc2)cc1
inactive: dose: 50.0 mg/kg/injection, schedule: Q01DX006 (ip), vehicle: other 102 % of control | dose: 50.0 mg/kg/injection, schedule: Q01DX009 (ip), vehicle: acetone 101 % of control | dose: 100.0 mg/kg/injection, schedule: Q01DX006 (ip), vehicle: other 116 % of control | dose: 100.0 mg/kg/injection, schedule: Q01DX009 (ip), vehicle: acetone 107 % of control | dose: 200.0 mg/kg/injection, schedule: Q01DX006 (ip), vehicle: other 117 % of control

CC(=O)Nc1ccc(S(=O)(=O)c2ccc([N+](=O)[O-])s2)cc1
inactive: dose: 25.0 mg/kg/injection, schedule: Q04DX003 (ip), vehicle: Klucel (hydroxypropylcellulose) (HPC) 105 % of control | dose: 50.0 mg/kg/injection, schedule: Q04DX003 (ip), vehicle: Klucel (hydroxypropylcellulose) (HPC) 102 % of control

COc1ccc2c(c1)CCC1C2=CCP1(C)=O (configuration not stated)
inactive: dose: 25.0 mg/kg/injection, schedule: Q01DX009 (ip), vehicle: saline 97 % of control | dose: 50.0 mg/kg/injection, schedule: Q01DX009 (ip), vehicle: saline 101 % of control | dose: 100.0 mg/kg/injection, schedule: Q01DX009 (ip), vehicle: saline 93 % of control | dose: 200.0 mg/kg/injection, schedule: Q01DX009 (ip), vehicle: saline 91 % of control

O=[N+]([O-])c1ccc(Nc2ccccc2[N+](=O)[O-])cc1
inactive: dose: 7.5 mg/kg/injection, schedule: Q01DX009 (ip), vehicle: saline with Tween-80 94 % of control | dose: 15.0 mg/kg/injection, schedule: Q01DX009 (ip), vehicle: saline with Tween-80 94 % of control | dose: 30.0 mg/kg/injection, schedule: Q01DX009 (ip), vehicle: saline with Tween-80 91 % of control

CCCCCCCSc1ncnc2c1ncn2C(=O)Sc1ccccc1
inactive: [4] 104 % of control | [5] 99 % of control | [6] 107 % of control
